According to patent US11440921B2, “Salts, crystal forms, and production methods thereof” (Sunovion Pharmaceuticals Inc., priority 2018, dated 2022):

Procedure: Approximately 200 mg of selected salts were weighed into clear glass HPLC vials. One milliliter of de-ionized water was added to each vial.

## (S)-(4,5-dihydro-7H-thieno[2,3-c]pyran-7-yl)-N-methylmethanamine R-mandelate [(S)-TPMA R-mandelate]
  solubility in de-ionized water: freely soluble
de-ionized water
  USP Descriptor: Freely Soluble
de-ionized water, approx. 200 mg salt in 1 mL
  Final solution PH: 6.2
de-ionized water, expressed in terms of free base
  Solubility (mgA/mL): >107 mgA/mL
